According to the supplement of paper PMC10307832:

Legend:
Test in all cases: relative viability (nuclei count vs DMSO), 5 days (fraction); higher = more cells survive
BI-D1870 + Tozasertib = compound: CC(C)CCN1c2nc(Nc3cc(F)c(O)c(F)c3)ncc2N(C)C(=O)C1C [BI-D1870] + Cc1cc(Nc2cc(N3CCN(C)CC3)nc(Sc3ccc(NC(=O)C4CC4)cc3)n2)n[nH]1 [Tozasertib] (partner 0.1 µM)
Procedure, shortened: (§1)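 Five library-drug doses in √10 steps were combined with a fixed anchor-drug dose, or a single drug was given alone, by pin tool to lung cancer cell lines in 1536-well plates the day after seeding. Nuclei were stained and counted after 5 days. Relative viability is the nuclei count in treated wells over that in vehicle wells, taken as the median of duplicate plates.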

Zebularine + Linsitinib = compound: O=c1ncccn1[C@@H]1O[C@H](CO)[C@@H](O)[C@H]1O [Zebularine] + C[C@]1(O)C[C@@H](c2nc(-c3ccc4ccc(-c5ccccc5)nc4c3)c3c(N)nccn32)C1 [Linsitinib] (partner 1 µM)
Procedure, shortened: as §1

Zebularine + Foretinib = compound: O=c1ncccn1[C@@H]1O[C@H](CO)[C@@H](O)[C@H]1O [Zebularine] + COc1cc2c(Oc3ccc(NC(=O)C4(C(=O)Nc5ccc(F)cc5)CC4)cc3F)ccnc2cc1OCCCN1CCOCC1 [Foretinib] (partner 0.25 µM)
Procedure, shortened: as §1

Zebularine + Bortezomib = compound: O=c1ncccn1[C@@H]1O[C@H](CO)[C@@H](O)[C@H]1O [Zebularine] + CC(C)C[C@H](NC(=O)[C@H](Cc1ccccc1)NC(=O)c1cnccn1)B(O)O [Bortezomib] (partner 0.002 µM)
Procedure, shortened: as §1

Cell Line	relative viability (BI-D1870 + Tozasertib; first compound 0.04 µM)	relative viability (BI-D1870 + Tozasertib; first compound 0.1265 µM)	relative viability (BI-D1870 + Tozasertib; first compound 0.4 µM)	relative viability (BI-D1870 + Tozasertib; first compound 1.265 µM)	relative viability (BI-D1870 + Tozasertib; first compound 4 µM)	relative viability (Zebularine + Linsitinib; first compound 1 µM)	relative viability (Zebularine + Linsitinib; first compound 3.162 µM)	relative viability (Zebularine + Linsitinib; first compound 10 µM)	relative viability (Zebularine + Linsitinib; first compound 31.62 µM)	relative viability (Zebularine + Linsitinib; first compound 100 µM)	relative viability (Zebularine + Foretinib; first compound 1 µM)	relative viability (Zebularine + Foretinib; first compound 3.162 µM)	relative viability (Zebularine + Foretinib; first compound 10 µM)	relative viability (Zebularine + Foretinib; first compound 31.62 µM)	relative viability (Zebularine + Foretinib; first compound 100 µM)	relative viability (Zebularine + Bortezomib; first compound 1 µM)	relative viability (Zebularine + Bortezomib; first compound 3.162 µM)	relative viability (Zebularine + Bortezomib; first compound 10 µM)	relative viability (Zebularine + Bortezomib; first compound 31.62 µM)	relative viability (Zebularine + Bortezomib; first compound 100 µM)
LCLC-97TM1	0.302	0.289	0.221	0.225	0.186	0.192	0.168	0.144	0.128	0.11	0.929	1	0.704	0.27	0.212	1.41	0.627	0.473	0.253	0.217
LCLC-103H	0.44	0.285	0.465	0.565	0.49	1.17	1.24	0.87	1	0.945	0.785	0.861	0.456	0.78	0.469	1.19	1.1	0.886	1.19	1.01
LOU-NH91	0.688	0.536	0.695	0.586	0.405	0.893	0.963	0.868	0.876	0.629	0.95	0.888	0.866	0.947	0.567	0.485	0.464	0.51	0.441	0.492
LU99A	0.274	0.253	0.273	0.316	0.25	0.66	0.529	0.437	0.344	0.169	0.884	0.807	0.577	0.436	0.195	1.39	1.08	0.638	0.421	0.199
LXF-289	0.173	0.211	0.191	0.183	0.195	1.08	0.977	0.96	0.78	0.289	1.09	0.984	0.847	0.626	0.241	1.04	0.993	0.94	0.748	0.301
NCI-H23	0.433	0.26	0.267	0.314	0.214	0.671	0.549	–	0.646	0.548	1.09	1.1	0.658	0.893	0.854	1.15	1.06	–	0.918	0.783
NCI-H322M	0.494	0.508	0.456	0.495	0.41	0.945	0.902	0.721	0.849	0.685	0.914	0.945	0.645	0.773	0.647	1.19	1.29	1.06	1.17	0.824
NCI-H441	0.56	0.531	0.59	0.504	0.407	0.581	0.548	0.291	0.249	0.234	1.72	1.03	0.684	0.361	0.258	0.355	0.278	0.352	0.235	0.245
NCI-H460	0.467	0.0966	0.104	0.0609	0.0499	1.21	1.06	0.272	0.388	0.0365	1.08	0.948	0.689	0.463	0.0513	1.34	1.07	0.241	0.278	0.126
NCI-H520	0.508	0.441	0.44	0.358	0.36	0.98	1.02	0.47	0.297	0.199	0.895	0.742	0.419	0.395	0.243	0.831	0.449	0.337	0.231	0.224
NCI-H596	0.953	0.82	0.901	0.81	0.905	1.03	1.04	0.832	1.06	1.01	0.75	0.926	0.559	0.891	0.602	1.06	1.1	0.725	1.23	0.986
NCI-H647	0.399	0.251	0.442	0.385	0.138	1.42	1.06	0.426	0.172	0.17	1.03	0.979	0.333	0.198	0.167	1.27	0.749	0.181	0.175	0.204
NCI-H650	0.752	0.677	0.689	0.588	0.265	0.931	0.755	0.467	0.43	0.374	1.02	0.934	0.824	0.447	0.258	0.956	0.654	0.557	0.525	0.357
NCI-H661	0.355	0.337	0.336	0.354	0.381	0.499	0.541	0.58	0.539	0.633	0.989	1.04	0.991	1.18	1.02	0.729	0.824	0.709	0.716	0.785
NCI-H727	0.683	0.699	0.561	0.773	0.557	0.3	0.3	0.286	0.365	0.203	0.951	0.85	0.769	1.03	0.723	0.901	0.816	0.737	0.943	0.762
NCI-H838	0.283	0.265	0.243	0.251	0.22	1.14	1.02	0.733	0.751	0.319	1.08	1.03	0.705	0.698	0.322	0.994	0.727	0.598	0.801	0.298

Cell Line	relative viability (BI-D1870 + Tozasertib; first compound 0.04 µM)	relative viability (BI-D1870 + Tozasertib; first compound 0.1265 µM)	relative viability (BI-D1870 + Tozasertib; first compound 0.4 µM)	relative viability (BI-D1870 + Tozasertib; first compound 1.265 µM)	relative viability (BI-D1870 + Tozasertib; first compound 4 µM)	relative viability (Zebularine + Linsitinib; first compound 1 µM)	relative viability (Zebularine + Linsitinib; first compound 3.162 µM)	relative viability (Zebularine + Linsitinib; first compound 10 µM)	relative viability (Zebularine + Linsitinib; first compound 31.62 µM)	relative viability (Zebularine + Linsitinib; first compound 100 µM)	relative viability (Zebularine + Foretinib; first compound 1 µM)	relative viability (Zebularine + Foretinib; first compound 3.162 µM)	relative viability (Zebularine + Foretinib; first compound 10 µM)	relative viability (Zebularine + Foretinib; first compound 31.62 µM)	relative viability (Zebularine + Foretinib; first compound 100 µM)	relative viability (Zebularine + Bortezomib; first compound 1 µM)	relative viability (Zebularine + Bortezomib; first compound 3.162 µM)	relative viability (Zebularine + Bortezomib; first compound 10 µM)	relative viability (Zebularine + Bortezomib; first compound 31.62 µM)	relative viability (Zebularine + Bortezomib; first compound 100 µM)
NCI-H1355	0.598	0.528	0.498	0.374	0.384	1	0.769	0.752	0.513	0.283	1.02	0.907	0.631	0.47	0.325	1.3	1.2	0.844	0.493	0.335
NCI-H1437	0.432	0.382	0.377	0.387	0.363	1.18	1.2	–	0.989	0.342	1.33	1.29	1.04	1.21	0.653	0.595	0.474	–	0.566	0.258
NCI-H1651	0.9	0.487	0.784	0.647	0.344	1	0.893	–	0.904	0.465	0.856	0.93	0.511	0.738	0.374	0.979	0.935	0.582	0.947	0.609
NCI-H1666	0.673	0.569	0.584	0.569	0.537	0.748	0.862	0.675	0.804	0.562	0.94	0.919	0.805	0.999	0.805	0.884	0.805	0.745	0.879	0.612
NCI-H1734	0.249	0.263	0.288	0.256	0.22	0.917	0.87	0.526	0.532	0.333	0.931	0.864	0.631	0.529	0.299	0.988	0.86	0.463	0.379	0.346
NCI-H1755	0.59	0.551	0.518	0.513	0.531	0.722	1.01	0.844	1	0.506	0.925	0.918	0.854	0.992	0.591	1.03	0.952	0.739	1.08	0.415
NCI-H1915	0.466	0.395	0.389	0.427	0.313	1.09	1.08	1.07	1.09	0.94	1.3	1.11	–	1.26	0.984	1.11	0.913	0.433	1.09	0.97
NCI-H1975	0.79	0.509	0.223	0.176	0.145	1.01	0.861	0.582	0.456	0.271	0.961	0.889	0.362	0.292	0.2	0.403	0.338	0.288	0.267	0.233
NCI-H1993	0.606	0.602	0.58	0.566	0.612	0.775	0.637	–	0.795	0.657	0.843	0.697	0.718	0.753	0.704	1.26	1.1	–	1.14	0.778
NCI-H2009	0.826	0.723	0.639	0.516	0.321	1.17	1.15	1.03	0.984	0.386	1.28	1.25	0.919	0.973	0.373	1.04	0.928	0.876	0.609	0.339
NCI-H2023	0.308	0.265	0.253	0.227	0.164	0.664	0.689	0.604	0.63	0.303	0.843	0.891	0.713	0.635	0.361	1.08	0.932	0.749	0.646	0.273
NCI-H2085	0.816	0.735	0.544	0.547	0.401	1.18	0.878	0.76	0.887	0.428	0.879	1.06	0.785	0.833	0.503	1.12	0.971	0.828	1.06	0.683
NCI-H2087	0.217	0.212	0.203	0.215	0.142	1.11	1.09	0.501	0.67	0.29	1.06	1.04	0.782	0.791	0.284	0.977	0.747	0.512	0.662	0.321
NCI-H2126	0.899	0.794	0.78	0.722	0.538	0.743	0.644	0.668	0.624	0.478	1.44	1.09	0.97	1.06	0.883	1.19	1.02	0.953	1.11	0.809
NCI-H2228	0.226	0.205	0.163	0.164	0.134	0.616	0.666	0.514	0.509	0.409	0.902	0.898	0.507	0.914	0.281	1.17	0.924	0.46	0.837	0.354
NCI-H2347	0.635	0.501	0.595	0.516	0.335	1.04	0.99	0.854	0.724	0.478	1.02	0.856	0.881	0.614	0.813	0.768	0.925	0.594	0.582	0.542
